Data from US7329666B2, “Derivatives of variolin B” (Pharma Mar, S.A., priority 2000, dated 2008).

Legend:
[1] = cited from earlier work
[2] = tested on: Sacharomyces cerevisiae; settings: cited from earlier work
[3] = tested on: HCT 116 cell line; settings: cited from earlier work
[4] = tested on: P388 cell line; settings: Tetrahedron 1994, 50, 3987-3992; cited from earlier work
[5] = tested on: P-388; experiment: cytotoxicity against P-388; type: cell-based; settings: Mus musculus, P388
Protocol: (§1) The cytotoxicity of the compounds of scheme 4 of this invention is illustrated by the following IC50 μM data: […]

[6] = tested on: A-549; experiment: cytotoxicity against A-549; type: cell-based; settings: Homo sapiens, A549
Protocol: as §1

[7] = tested on: HT-29; experiment: cytotoxicity against HT-29; type: cell-based; settings: Homo sapiens
Protocol: as §1

[8] = tested on: Herpes simplex; settings: cited from earlier work
[9] = tested on: other microorganisms; settings: cited from earlier work

COC(=O)c1c2c(O)ccnc2n2c(N)nccc12 [Variolin D, variolin D]
activity in all the assays [1]: inactive

CN1C(N)=NCCC1c1c2c(O)ccnc2n2c(N)nccc12 (stereo not shown) [N(3′)-methyltetrahydrovariolin B, N (3′)-methyl tetrahydrovariolin B]
growth of Sacharomyces cerevisiae [2]: inhibited the growth
in vitro activity against the HCT 116 cell line [3]: in vitro activity

C[n+]1c([O-])cc(-c2c3c(O)ccnc3n3c(N)nccc23)nc1N [Variolin A]
cytotoxic activity against the P388 cell line [4]: important cytotoxic activity

Nc1nccc(-c2c3cccnc3n3c(N)nccc23)n1 [Compound 5, 9-Amino-5-(2-aminopyrimidin-4-yl)pyrido[3′,2′:4,5]pyrrolo[1,2-c]-pyrimidine]
IC50 [5]: 360 nM
IC50 [6]: 40 nM
IC50 [7]: 40 nM

CSc1nccc(-c2c3cccnc3n3c(N)nccc23)n1 [Compound 21, 9-Amino-5-(2-methanesulfanylpyrimidin-4-yl)pyrido[3′,2′:4,5]pyrrolo[1,2-c]pyrimidine]
IC50 [5]: > 3000 nM
IC50 [6]: 160 nM
IC50 [7]: 160 nM

Nc1nccc(-c2c3c(O)ccnc3n3c(N)nccc23)n1 [variolin B]
IC50 [5]: 850 nM
IC50 [6]: 170 nM
IC50 [7]: 90 nM
effectiveness against Herpes simplex [8]: effective
activity against a range of other microorganisms [9]: inactive
cytotoxic activity against the P388 cell line [4]: cytotoxic activity

CSc1nccc(-c2c3cccnc3n3c(NC(C)=O)nccc23)n1 [Compound 20a, 9-Acetylamino-5-(2-methanesulfanylpyrimidin-4-yl)pyrido[3′,2′:4,5]-pyrrolo-[1,2-c]pyrimidine]
IC50 [5]: > 3000 nM
IC50 [6]: 290 nM
IC50 [7]: 290 nM
